The melting point is the temperature, or range, at which the solid turns liquid.

Read-outs that look alike come from different tables or passages of the source. A value given as a limit tells only on which side of the number the result lay.

These results are taken from patent US11149033B2, “Heteroaryl compound, enantiomer, diastereomer or pharmaceutically acceptable salt thereof, and antiviral composition containing same as active ingredient” (priority 2016, dated 2021).

The test system of one data set is B/Florida/04/2006. Nature of the data set: Antiviral activity (drug efficacy evaluation by concentration) against B/Florida/04/2006. It counts as cell-based, B type influenza virus.
Data set [1] concerns A/California/07/2009 (H1N1). Description: Antiviral activity (drug efficacy evaluation by concentration) against A/California/07/2009 (H1N1). It counts as cell-based, A type influenza virus. As to conditions: Influenza A virus.
The next data set deals with A/Perth/16/2009 (H3N2). Description: Antiviral activity (drug efficacy evaluation by concentration) against A/Perth/16/2009 (H3N2). The settings on record: Influenza A virus. The class given is cell-based, A type influenza virus.
[2] abbreviates: CC50, third EC50/CC50 column pair (c7), beside the EC50 of c6.

The compound `Cc1cccc(C)c1Nc1nnc(C(O)c2ccc(F)c(Cl)c2)o1` (centres unmarked) [Compound 79, (3-chloro-4-fluorophenyl)(5-((2,6-dimethylphenyl)amino)-1,3,4-oxadiazol-2-yl)methanol] returned a melting point of 185.8 °C. Moreover, the EC50 with B/Florida/04/2006 (read-out: EC50 B/Florida/04/2006, B/Florida/04/2006) was more than 50 µM. Further, the EC50 in data set [1] (H1N1, A/California/07/2009 (H1N1), read-out: EC50 A/California/07/2009 (H1N1)) is more than 50 µM. Further, in the data set on A/Perth/16/2009 (H3N2) (H3N2, A/Perth/16/2009 (H3N2), read-out: EC50 A/Perth/16/2009 (H3N2)), the EC50 is more than 50 µM. Further, the CC50 in “in vitro” (CC50 B/Florida/04/2006, cytotoxicity in the B/Florida/04/2006 assay) is more than 50 µM.

`CC(C)c1ccccc1CCc1nnc(Nc2ccc(Br)cc2)o1` [Compound 84, N-(4-bromophenyl)-5-(2-isopropylphenethyl)-1,3,4-oxadiazol-2-amine] yielded a melting point of 175.4 °C. In the data set on B/Florida/04/2006, this compound yielded an EC50 of more than 50 µM. Also, the EC50 in data set [1] (H1N1, read-out: EC50) was found to be 34.7 µM. The EC50 in the data set with A/Perth/16/2009 (H3N2) (H3N2, read-out: EC50) amounted to 41.7 µM. This compound showed a CC50 in the data set “in vitro” (CC50, beside the EC50 of c2) of more than 50 µM. Besides, the CC50 in “in vitro” (CC50, beside the EC50 of c4) was more than 50 µM. Also, the CC50 in “in vitro” (setting [2]) is more than 50 µM.

The compound `Cc1cccc(C)c1Nc1nnc(CCc2ccccc2C(C)C)o1` [Compound 85, N-(2,6-dimethylphenyl)-5-(2-isopropylphenethyl)-1,3,4-oxadiazol-2-amine] came in with a melting point of 234.1 °C. Moreover, in the data set with B/Florida/04/2006, the EC50 is more than 50 µM. Besides, the EC50 in data set [1] (H1N1, read-out: EC50) was more than 50 µM. The EC50 in the data set on A/Perth/16/2009 (H3N2) (H3N2, read-out: EC50) was more than 50 µM. Besides, the CC50 in the data set “in vitro” (CC50, beside the EC50 of c2) is more than 50 µM. In “in vitro” (CC50, beside the EC50 of c4), the CC50 is more than 50 µM. The CC50 in the data set “in vitro” (setting [2]) is more than 50 µM.

As to `Fc1ccc(/C=C/c2nnc(Cc3ccc(Br)cc3)o2)c(Cl)c1` [Compound 86, (E)-2-(4-bromobenzyl)-5-(2-chloro-4-fluorostyryl)-1,3,4-oxadiazole], the melting point stood at 147.9 °C. Moreover, the EC50 in the data set with B/Florida/04/2006 worked out at 42 µM. Moreover, in data set [1] (H1N1, read-out: EC50), the EC50 came to 2.7 µM. Besides, in the data set with A/Perth/16/2009 (H3N2) (H3N2, read-out: EC50), the EC50 was 45.7 µM. The compound also gave a CC50 in “in vitro” (CC50, beside the EC50 of c2) of more than 50 µM. In the data set “in vitro” (CC50, beside the EC50 of c4), this compound returned a CC50 of more than 50 µM. The CC50 in “in vitro” (setting [2]) was more than 50 µM.

`Fc1ccc(/C=C/c2nnc(Nc3ccc(Br)cc3)o2)c(Cl)c1` [Compound 87, (E)-N-(4-bromophenyl)-5-(2-chloro-4-fluorostyryl)-1,3,4-oxadiazol-2-amine] showed a melting point of 218.7 °C. Also, in the data set on B/Florida/04/2006, the EC50 stood at 2.52 µM. Moreover, the EC50 in data set [1] (H1N1, read-out: EC50) is 2.74 µM. For the same compound, the EC50 with A/Perth/16/2009 (H3N2) (H3N2, read-out: EC50) is 1.97 µM. Besides, the CC50 in the data set “in vitro” (CC50, beside the EC50 of c2) was more than 50 µM. Also, the CC50 in “in vitro” (CC50, beside the EC50 of c4) was more than 50 µM. The CC50 in the data set “in vitro” (setting [2]) was more than 50 µM.

As for `Cc1ccccc1CCc1nnc(Nc2ccc(Br)c(F)c2)o1` [Compound 91, N-(4-bromo-3-fluorophenyl)-5-(2-methylphenethyl)-1,3,4-oxadiazol-2-amine], the melting point turned out to be 151.6 °C. Further, the EC50 in the data set with B/Florida/04/2006 was 19.3 µM. Moreover, in data set [1] (H1N1, read-out: EC50), the EC50 worked out at 9.13 µM. Moreover, the EC50 in the data set with A/Perth/16/2009 (H3N2) (H3N2, read-out: EC50) was 8.3 µM. The same compound showed a CC50 in the data set “in vitro” (CC50, beside the EC50 of c2) of 6.03 µM. In the data set “in vitro” (CC50, beside the EC50 of c4), the CC50 stood at 15.7 µM. In “in vitro” (setting [2]), this compound returned a CC50 of 6.63 µM.

The compound `Brc1ccc(Cc2nnc(/C=C/c3ccccc3C3CCCCC3)o2)cc1` [Compound 111, 2-(4-bromobenzyl)-5-(2-cyclohexylstyryl)-1,3,4-oxadiazole] returned a melting point of 117.1 °C. The EC50 in the data set with B/Florida/04/2006 stood at 41.3 µM. Also, the EC50 in data set [1] (H1N1, read-out: EC50) stood at 31.8 µM. The EC50 with A/Perth/16/2009 (H3N2) (H3N2, read-out: EC50) was 34.3 µM. For the same compound, the CC50 in “in vitro” (CC50, beside the EC50 of c2) was found to be 32.5 µM. In “in vitro” (CC50, beside the EC50 of c4), this compound returned a CC50 of more than 50 µM. This compound returned a CC50 in the data set “in vitro” (setting [2]) of more than 50 µM.

`Brc1ccc(Nc2nnc(/C=C/c3ccccc3C3CCCCC3)o2)cc1` [Compound 116, (E)-N-(4-bromophenyl)-5-(2-cyclohexylstyryl)-1,3,4-oxadiazol-2-amine] yielded a melting point of 228.3 °C. This compound also showed an EC50 with B/Florida/04/2006 of 34.5 µM. Besides, the EC50 in data set [1] (H1N1, read-out: EC50) was found to be 36.2 µM. Further, the EC50 with A/Perth/16/2009 (H3N2) (H3N2, read-out: EC50) came out at 35.1 µM. In the data set “in vitro” (CC50, beside the EC50 of c2), this compound had a CC50 of more than 50 µM. This compound also yielded a CC50 in the data set “in vitro” (CC50, beside the EC50 of c4) of more than 50 µM.

For `COc1ccccc1/C=C/c1nnc(Nc2ccc(Br)cc2)o1` [Compound 120, (E)-N-(4-bromophenyl)-5-(2-methoxystyryl)-1,3,4-oxadiazol-2-amine], the melting point was 232.4 °C. Further, in the data set with B/Florida/04/2006, the EC50 was determined as 17.4 µM. In addition, the EC50 in data set [1] (H1N1, read-out: EC50) came out at 23.1 µM. For the same compound, the EC50 in the data set on A/Perth/16/2009 (H3N2) (H3N2, read-out: EC50) came to 18.1 µM. The CC50 in the data set “in vitro” (CC50, beside the EC50 of c2) was more than 50 µM. This compound registered a CC50 in the data set “in vitro” (CC50, beside the EC50 of c4) of more than 50 µM.
